Measured values taken from patent publication US7511167B2, “Two-photon dyes for real-time imaging of lipid rafts” (Korea University Industry and Academy Cooperation Foundation, priority 2006, dated 2009).
Several values for one entry are separate records, joined by “and”; a condition that tells them apart may be missing. Equal entries are not always repeated. Where two headings read alike, the source gives them in different places.

How the values were obtained:
[1] = Spectroscopic measurements of the dyes in four solvents (Test Example 2); type: physicochemical; settings: for quantum yield in water relative to that in ethanol: water versus ethanol
Protocol: The two-photon dyes prepared in Example 1 and Comparative Example 1 were dissolved in four solvents (hexane, DMF, ethanol and water), respectively. The one-photon maximum absorption wavelength (λmax), one-photon maximum emission wavelength (λ^f1max), two-photon maximum absorption wavelength (λ^(2)max), quantum yield (Φ) and two-photon absorption efficiency (δmax) of the solutions were measured, and the results are shown in Table 1. The absorption spectra were measured on a Hewlett-Packard 8453 diode array spectrophotometer. The fluorescence spectra were obtained with an Aminco Bowman series 2 luminescence spectrometer. The two-photon absorption efficiency means a maximum value of a two-photon cross section (δTPA). The two-photon cross section can be calculated by the following equation 1: […]
wherein the subscripts s and r represent sample and reference molecules, respectively, δ represents the two-photon cross section, S represents the strength of signals collected by a CCD detector, Φ represents the fluorescence quantum efficiency, φ represents the total fluorescence collection efficiency of an experimental system, c represents the number density of the molecules within each of the solutions, and δr represents the two-photon cross section of reference molecules.

[2] = Reflection tests of polarity of solvents, fluorescence spectra (Test Example 1); type: physicochemical
Protocol: Time-resolved fluorescence (TRF) spectra of the two-photon dyes prepared in Comparative Example 1 and Example 1 were measured to examine changes in the one-photon fluorescence wavelength of the dyes according to the polarity of solvents. In this test, hexane, DMF, ethanol and water were used as solvents. The polarity of the solvents increases in the order: hexane<DMF<ethanol<water. […] Since Laurdan has a long hydrocarbon tail, the dye molecules surrounded by the adjacent dye molecules were placed in a hydrophobic environment, and as a result, a blue shift was observed. […] From these observations, it can be concluded that Laurdan is not suitable for use in real-time imaging of lipid rafts.
On the other hand, time-resolved fluorescence (TRF) spectra of the two-photon dye (TPD4) prepared in Example 4 were measured to examine changes in the one-photon fluorescence wavelength of the dye according to the polarity of solvents. In this test, THF, DMF, ethanol and ethanol/water were used as solvents. The polarity of the solvents increases in the order: THF<DMF<ethanol<ethanol/water. […] As mentioned previously, the reason for this is because the fluorescence quantum yield and fluorescence lifetime of TPD4 in a hydrophilic environment were decreased drastically. Therefore, lipid rafts can be directly observed due to the difference in fluorescence intensity.

[3] = Reflection tests of polarity of liposomes (Test Example 3); type: physicochemical; settings: for fluorescence wavelength (peaks): DOPC liposomes; for maximum fluorescence wavelength: DPPC liposomes
Protocol: Three kinds of liposomes having different fluidity (polarity) were prepared to examine how much the two-photon dyes prepared in Example 1 and Comparative Example 1 reflected the polarity of the liposomes. Specifically, DOPC liposomes were prepared from 1,2-dioleoyl-sn-glycerol-3-phosphocholine (DOPC) having unsaturated fatty acids so as to reflect the fluidity of phospholipids of plasma membranes. The DOPC liposomes were relatively fluid. DOPC/Sphingo/Chol liposomes were composed of DOPC, sphingomyelin and cholesterol in the same ratio so as to simultaneously reflect phospholipids and lipid rafts. DPPC liposomes were prepared from 1,2-dipalmitoyl-sn-glycerol-3-phosphocholine (DPPC) so as to reflect lipid rafts. The DPPC liposomes were in a gel state and had lowest fluidity. Next, the three kinds of liposomes were stained with Laurdan and TPD1, and their spectral properties were examined. Referring to FIGS. 3a (Laurdan) and 3b (TPD1), the maximum one-photon absorption wavelengths of Laurdan and TPD1 were in the range of 360-395 nm, regardless of the kind of the liposomes. However, the fluorescence intensity of the liposomes increased with the hydrophobicity of the liposomes in the order: DOPC<DOPC/Sphingo/Chol<DPPC. […] Referring to FIG. 3c, the maximum fluorescence wavelength of Laurdan in DPPC is 440 nm and the fluorescence spectrum of Laurdan in DOPC is broader.
In the meanwhile, the fluorescence wavelength bands of Laurdan in DOPC/Sphingo/Chol and DPPC were confirmed to overlap almost completely. […] In contrast, TPD1 prepared in Example 1 emitted fluorescence of 442 nm in DPPC and fluorescence of 486 nm in DOPC (FIG. 3d). In addition, the fluorescence spectrum of TPD1 in the DOPC/Sphingo/Chol liposomes is broad and almost the same as the sum of the spectra in the DPPC and DOPC liposomes.
On the other hand, the different kinds of liposomes were stained with TPD4 prepared in Example 4, and their fluorescence spectra were examined. Referring to FIG. 4, the fluorescence intensity of the fluid DOPC liposomes (in a hydrophilic environment) was ⅛ of that of the DPPC liposomes and about 1/6.5 of that of the DOPC/Sphingo/Chol liposomes.

[4] = cited from earlier work
A431 cells = experiment: Cytotoxicity test, MTT assay (Test Example 7); type: cell-based; settings: 1×10^−5 M, DMSO (1%) reference, incubation for 6 hours
Description: To evaluate whether the two-photon dyes of the present invention are cytotoxic or not, MTT assay was done on the two-photon dye prepared in Example 1. Specifically, A431 cells were stained with TPD1 (1×10^−5 M) and DMSO (1%) was used as a reference solvent. […] Therefore, it can be concluded that the two-photon dye of the present invention is suitable for imaging of living cells.

| Φ (quantum yield) ([1]; solvent DMF) | δmax (two-photon absorption efficiency) ([1]; solvent DMF) | λ^(2)max (two-photon maximum absorption wavelength) ([1]; solvent DMF) | λ^flmax (one-photon maximum emission wavelength) ([1]; solvent DMF) | λmax (one-photon maximum absorption wavelength) ([1]; solvent DMF) | Φ (quantum yield) ([1]; solvent ethanol) | δmax (two-photon absorption efficiency) ([1]; solvent ethanol) | λ^(2)max (two-photon maximum absorption wavelength) ([1]; solvent ethanol) | λ^flmax (one-photon maximum emission wavelength) ([1]; solvent ethanol) | λmax (one-photon maximum absorption wavelength) ([1]; solvent ethanol) | Φ (quantum yield) ([1]; solvent hexane) | λ^flmax (one-photon maximum emission wavelength) ([1]; solvent hexane) | λmax (one-photon maximum absorption wavelength) ([1]; solvent hexane) | Φ (quantum yield) ([1]; solvent water) | λ^flmax (one-photon maximum emission wavelength) ([1]; solvent water) | λmax (one-photon maximum absorption wavelength) ([1]; solvent water) | quantum yield in water relative to that in ethanol [1] | fluorescence wavelength (peaks) [3] | maximum fluorescence wavelength [3] | Structure (SMILES) | further results |
| --- | --- | --- | --- | --- | --- | --- | --- | --- | --- | --- | --- | --- | --- | --- | --- | --- | --- | --- | --- | --- |
| 1.00 | 50 GM | 780 | 454 | 356 | 1.00 | 57 GM | 780 | 487 | 363 | 0.11 | 407 | 344 | 0.01 | 431 | 354 | 1/100 | 439 nm and 484 nm | 440 nm | CCCCCCCCCCCC(=O)c1ccc2cc(N(C)C)ccc2c1 [Laurdan, reference compound] | solubility in water ([2]; water): substantially insoluble in water; wavelength of light emitted in water ([2]; water): 400-460 nm; maximum fluorescence wavelength in water with the highest polarity ([2]; water versus less polar solvents): decreased (i.e. blue-shifted); fluorescence emitted in lipid raft domains in a hydrophobic environment ([4]; cell membranes): 400 to 460 nm; fluorescence emitted in phospholipid domains in a hydrophilic environment ([4]; cell membranes): 470 to 530 nm; fluorescence emitted by the precipitate ([4]; water): 450 nm; solubility in water ([4]; water): barely soluble in water |
| 0.36 | 167 GM | 780 | 446 | 363 | 0.43 | 153 GM | 780 | 494 | 383 | 0.10 | 404 | 345 | 0.11 | 522 | 384 | ¼ | 486 nm | 442 nm | CCCCCCCCCCCC(=O)c1ccc2cc(N(C)CC(=O)O)ccc2c1 [TPD1] | two-photon absorption efficiency relative to the dye of Comparative Example 1 [1]: about three to six times; two-photon absorption efficiency, maximum ([1]; over the solvents): 323 GM; two-photon absorption efficiency, minimum ([1]; over the solvents): 153 GM; δmax (two-photon absorption efficiency) ([1]; solvent water): 323 GM; λ^(2)max (two-photon maximum absorption wavelength) ([1]; solvent water): 820; maximum fluorescence wavelength as the polarity of the solvents increased ([2]; hexane<DMF<ethanol<water): increased; fluorescence intensity relative to Laurdan ([3]; in all liposomes): 2-5 times; cytotoxicity (cell viability, MTT) versus reference solvent (A431 cells): no significant difference in cytotoxicity |
|  |  |  |  |  |  |  |  |  |  |  |  |  |  |  |  |  |  |  | CCCCCCCCCC(=O)/C=C/c1ccc2cc(N(C)CC(=O)OC(C)(C)C)ccc2c1 [TPD4] | fluorescence intensity as the polarity of the solvents increased ([2]; THF<DMF<ethanol<ethanol/water): reduced drastically; fluorescence intensity of DOPC liposomes relative to DPPC liposomes ([3]; stained liposomes): ⅛ |
